# Literature values, collected in patent US20080255186A1, “Pyrazolo[3,4-B]Pyridine Compound, and Its Use as a Pde4 Inhibitor” (priority 2005, published 2008).
# Columns and labels:
# [1] = system: atopic dermatitis patients; settings: 0.15% cream vs vehicle and hydrocortisone 17-butyrate (0.1%) cream; cited from earlier work
# [2] = system: humans with histories of allergic rhinitis; settings: orally 500 ug once daily for 9 days, compared to placebo; cited from earlier work
# [3] = system: COPD patients; settings: cited from earlier work
# [4] = system: atopic dermatitis patients; settings: 0.5% ointment, twice daily topical application; cited from earlier work
structure (smiles),measurement,setting,value
Nc1nc2c([nH]1)c(=O)n(CC1CC1)c(=O)n2CC1CC1 [cipamfylline],Efficacy in treatment of atopic dermatitis patients,[1],"significantly more effective than vehicle, but significantly less effective than hydrocortisone 17-butyrate (0.1%) cream"
O=C(Nc1c(Cl)cncc1Cl)c1ccc(OC(F)F)c(OCC2CC2)c1 [roflumilast],Effect on rhinal airflow,[2],effective in improving rhinal airflow
COc1ccc([C@]2(C#N)CC[C@@H](C(=O)O)CC2)cc1OC1CCCC1 [cilomilast],Effect on forced expiratory volume (FEV1) in COPD patients,[3]; cilomilast: 15 mg orally twice daily,appears to improve forced expiratory volume
same,Antiinflammatory effects in COPD patients,"[3]; human, in vivo",appears to have antiinflammatory effects in COPD patients
"COc1ccc(C2CNC(=O)NC2)cc1O[C@H]1C[C@@H]2CC[C@H]1C2 [CP80,633]",Effect on inflammatory parameters in atopic dermatitis patients,[4],reductions of inflammatory parameters
